Measurements as given in patent publication US11116771B2, “G protein-coupled receptor (GPCR) modulation by imipridones” (Oncoceutics, Inc., priority 2016, dated 2021).
In brackets after ≈: the same amount, converted by molar mass. Entries after “also recorded” stand apart in the source; their conditions may differ. Like-named read-outs stand apart in the source and are kept apart here.

What was measured:
[1] = test system: DRD2 (short and long isoforms); assay: β-arrestin recruitment GPCR reporter assay, DRD2; assay type: cell-based
[2] = test system: Staphylococcus aureus ATCC 33591; assay: MIC by micro-broth dilution, S. aureus ATCC 33591; assay type: cell-based; conditions: ATCC33591; for MIC90: read-out: MIC90; for MIC99: read-out: MIC99
human cancer cells = assay: Viability of human cancer cells at 72 hours post-treatment; assay type: cell-based; conditions: relative to the potency of ONC201; viability of human cancer cells at 72 hours post-treatment
[3] = test system: Staphylococcus aureus ATCC 700699; assay: MIC by micro-broth dilution, S. aureus ATCC 700699; assay type: cell-based; conditions: ATCC700699; for MIC90: read-out: MIC90; for MIC99: read-out: MIC99
GPR132 = target: T1, GPR132 (Homo sapiens, UniProt Q9UNW8); assay: β-arrestin recruitment GPCR reporter assay, GPR132; assay type: cell-based
T1 sequence (Q9UNW8 1-380): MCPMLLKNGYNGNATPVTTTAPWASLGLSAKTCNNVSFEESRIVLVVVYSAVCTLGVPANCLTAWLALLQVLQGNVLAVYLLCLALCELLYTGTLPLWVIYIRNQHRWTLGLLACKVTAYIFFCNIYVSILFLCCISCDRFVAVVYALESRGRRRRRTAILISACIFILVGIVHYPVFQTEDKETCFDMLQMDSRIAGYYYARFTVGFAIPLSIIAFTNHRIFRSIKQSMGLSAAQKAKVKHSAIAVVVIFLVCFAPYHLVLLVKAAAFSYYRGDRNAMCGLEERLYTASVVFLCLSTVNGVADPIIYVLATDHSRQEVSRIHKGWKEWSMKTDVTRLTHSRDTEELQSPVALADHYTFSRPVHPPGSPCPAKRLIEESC

GPR91 = GPR91 (Homo sapiens, UniProt Q9BXA5); assay: β-arrestin recruitment GPCR reporter assay, GPR91; assay type: cell-based
GPR91, sequence (Q9BXA5 whole entry): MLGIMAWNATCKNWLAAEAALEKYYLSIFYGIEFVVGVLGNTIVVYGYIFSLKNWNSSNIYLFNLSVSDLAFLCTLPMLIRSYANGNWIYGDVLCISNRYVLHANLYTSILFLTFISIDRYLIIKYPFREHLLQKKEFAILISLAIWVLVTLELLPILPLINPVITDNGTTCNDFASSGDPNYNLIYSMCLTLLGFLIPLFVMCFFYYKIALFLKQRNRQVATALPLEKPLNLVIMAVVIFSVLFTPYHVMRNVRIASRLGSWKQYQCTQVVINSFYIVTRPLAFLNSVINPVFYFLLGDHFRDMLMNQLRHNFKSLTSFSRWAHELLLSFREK

[4] = test system: Staphylococcus aureus ATCC 29213; assay: MIC by micro-broth dilution, S. aureus ATCC 29213; assay type: cell-based; conditions: ATCC29213; for MIC90: read-out: MIC90; for MIC99: read-out: MIC99
normal cells = assay: In vitro toxicity to normal cells; assay type: cell-based; conditions: FIG. 33
DRD3 = DRD3 (Homo sapiens, UniProt P35462); assay: β-arrestin recruitment GPCR reporter assay, DRD3; assay type: cell-based
DRD3, sequence (P35462 whole entry): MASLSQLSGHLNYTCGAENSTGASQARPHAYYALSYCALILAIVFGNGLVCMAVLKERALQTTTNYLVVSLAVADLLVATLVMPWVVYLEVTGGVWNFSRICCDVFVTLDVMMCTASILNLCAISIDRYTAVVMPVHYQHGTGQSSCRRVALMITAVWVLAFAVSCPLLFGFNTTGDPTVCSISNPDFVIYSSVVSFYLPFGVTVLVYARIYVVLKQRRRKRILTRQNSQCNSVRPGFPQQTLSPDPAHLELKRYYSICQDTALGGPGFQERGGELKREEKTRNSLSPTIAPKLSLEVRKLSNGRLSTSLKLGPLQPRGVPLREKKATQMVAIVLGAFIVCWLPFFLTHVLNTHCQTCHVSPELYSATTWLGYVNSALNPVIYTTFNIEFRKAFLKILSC

[5] = Mouse tolerability (non-GLP oral single dose / MTD study); assay type: in vivo; conditions: in vivo; mouse; non-GLP oral single dose study / MTD study
Experimental: ONC212 25 mg/kg represents NOAEL in mouse and rat non-GLP oral single dose studies which is also the efficacious dose in mouse xenograft studies. […].
Dual targeting of DRD2/3 and GPR132/91 represents a novel strategy for anti-cancer efficacy without toxicity. […] […]. […] […].

GPCRs = assay: GPCR profiling by arrestin recruitment reporter assay (panel); assay type: cell-based; conditions: 10 μM
DRD5 = DRD5 (Homo sapiens, UniProt P21918); assay: β-arrestin recruitment GPCR reporter assay, DRD5; assay type: cell-based; conditions: arrestin recruitment reporter assay
DRD5, sequence (P21918 whole entry): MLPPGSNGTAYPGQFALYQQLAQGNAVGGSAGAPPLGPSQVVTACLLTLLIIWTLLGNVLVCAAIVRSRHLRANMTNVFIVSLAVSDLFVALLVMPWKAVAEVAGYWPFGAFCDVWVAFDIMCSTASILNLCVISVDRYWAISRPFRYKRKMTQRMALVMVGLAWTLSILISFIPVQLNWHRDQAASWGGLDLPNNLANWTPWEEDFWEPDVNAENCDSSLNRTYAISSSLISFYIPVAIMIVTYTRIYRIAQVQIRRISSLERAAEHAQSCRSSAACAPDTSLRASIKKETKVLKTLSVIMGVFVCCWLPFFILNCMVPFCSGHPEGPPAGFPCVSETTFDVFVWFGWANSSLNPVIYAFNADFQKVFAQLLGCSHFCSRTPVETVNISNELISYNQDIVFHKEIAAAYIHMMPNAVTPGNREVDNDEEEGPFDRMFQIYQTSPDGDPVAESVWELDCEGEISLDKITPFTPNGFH

CXCR7 = CXCR7 (Homo sapiens, UniProt P25106); assay: β-arrestin recruitment GPCR reporter assay, CXCR7; assay type: cell-based
CXCR7, sequence (P25106 whole entry): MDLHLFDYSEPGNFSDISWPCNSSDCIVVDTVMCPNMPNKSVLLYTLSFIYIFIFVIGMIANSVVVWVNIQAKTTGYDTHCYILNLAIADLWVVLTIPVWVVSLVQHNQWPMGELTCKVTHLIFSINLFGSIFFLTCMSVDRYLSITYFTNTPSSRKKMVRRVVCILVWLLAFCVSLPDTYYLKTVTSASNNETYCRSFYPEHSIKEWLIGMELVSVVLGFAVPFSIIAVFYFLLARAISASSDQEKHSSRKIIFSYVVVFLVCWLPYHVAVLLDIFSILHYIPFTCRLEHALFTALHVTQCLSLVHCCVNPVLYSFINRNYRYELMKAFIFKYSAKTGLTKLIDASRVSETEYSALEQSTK

[6] = Jacob et al. 2014; Wagner et al. 2015; cited from earlier work
DRD2L = DRD2L (Homo sapiens, UniProt P14416); assay: Gaddum/Schild analysis of arrestin recruitment to DRD2L; assay type: cell-based; conditions: arrestin recruitment / cAMP reporters (FIGS. 5B, 5C, 5F)
DRD2L, sequence (P14416 whole entry): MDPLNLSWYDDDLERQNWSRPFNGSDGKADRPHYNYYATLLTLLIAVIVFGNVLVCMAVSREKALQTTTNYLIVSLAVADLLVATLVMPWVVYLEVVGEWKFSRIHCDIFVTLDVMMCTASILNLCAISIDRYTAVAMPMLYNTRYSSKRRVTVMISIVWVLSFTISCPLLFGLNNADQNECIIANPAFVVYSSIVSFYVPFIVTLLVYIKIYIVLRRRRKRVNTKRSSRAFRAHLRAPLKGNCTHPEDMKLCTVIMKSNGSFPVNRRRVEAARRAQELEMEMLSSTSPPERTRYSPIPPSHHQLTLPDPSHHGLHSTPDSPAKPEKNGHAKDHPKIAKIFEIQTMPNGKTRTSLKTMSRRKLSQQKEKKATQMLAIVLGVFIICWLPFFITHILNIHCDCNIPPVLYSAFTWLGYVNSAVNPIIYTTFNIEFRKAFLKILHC

[7] = Staphylococcus aureus (ATCC 33591), methicillin resistant, read-out: MIC
[8] = Staphylococcus aureus, ATCC 33591, 24 hours
[9] = Staphylococcus aureus, ATCC 33591, 24 hours, read-out: MIC95
[10] = Staphylococcus aureus, ATCC 33591, 24 hours, read-out: MIC, Visual
[11] = Staphylococcus aureus, ATCC 700699 (48 hours)
[12] = Staphylococcus aureus, ATCC 700699 (48 hours), read-out: MIC95
[13] = Staphylococcus aureus, ATCC 700699 (48 hours), read-out: MIC, Visual
[14] = wild type Staphylococcus aureus (ATCC 29213), read-out: MIC
[15] = Staphylococcus aureus, ATCC 29213, 24 hours
[16] = Staphylococcus aureus, ATCC 29213, 24 hours, read-out: MIC95
[17] = Staphylococcus aureus, ATCC 29213, 24 hours, read-out: MIC, Visual

| SMILES | GPCR activity, DRD2 [1] | MIC [2, 7] | MIC90 [2, 8] | MIC [2, 9] | MIC99 [2, 8] | MIC [2, 10] | Relative Potency* (human cancer cells) | MIC90 [3, 11] | MIC [3, 12] | MIC99 [3, 11] | MIC [3, 13] | MIC [4, 14] | MIC90 [4, 15] | MIC [4, 16] | MIC99 [4, 15] | MIC [4, 17] | GPCR activity, CXCR7 (CXCR7) | further results |
| --- | --- | --- | --- | --- | --- | --- | --- | --- | --- | --- | --- | --- | --- | --- | --- | --- | --- | --- |
| O=C1C2=C(CCN(Cc3ccccc3)C2)N2CCN=C2N1Cc1ccc(F)c(F)c1 [ONC213] | DRD2/3 inhibitor; also recorded: more than ONC201 but less than ONC206 | 3.13 µg/mL (≈ 7.66 µM) | 3.13 µg/mL (≈ 7.66 µM) | 6.25 µg/mL (≈ 15.3 µM) | 100 µg/mL (≈ 245 µM) | 3.12 µg/mL (≈ 7.65 µM) | A (A Indicates a potency increase of >2-fold of ONC201) | 6.25 µg/mL (≈ 15.3 µM) | 12.5 µg/mL (≈ 30.6 µM) | 12.5 µg/mL (≈ 30.6 µM) | 12.5 µg/mL (≈ 30.6 µM) | 25 µg/mL (≈ 61.2 µM) | 12.5 µg/mL (≈ 30.6 µM) | 12.5 µg/mL (≈ 30.6 µM) | 25 µg/mL (≈ 61.2 µM) | 25 µg/mL (≈ 61.2 µM) |  | GPCR activity, GPR132 (GPR132): less than ONC212; also recorded: GPR132/91 agonist; GPCR activity, GPR91 (GPR91): GPR132/91 agonist; in vitro toxicity to normal cells (normal cells): reduced compared to ONC212; GPCR activity, DRD3 (DRD3): DRD2/3 inhibitor; also recorded: more than ONC201 but less than ONC206; NOAEL [5]: 75 mg/kg |
| O=C1C2=C(CCN(Cc3ccc(Cl)c(Cl)c3)C2)N2CCN=C2N1Cc1ccc(C(F)(F)F)cc1 [ONC234] | antagonist activity |  |  |  |  |  | A (A Indicates a potency increase of >2-fold of ONC201) |  |  |  |  |  |  |  |  |  | CXCR7 agonist activity | GPCR profile / selectivity (GPCRs): broad spectrum and potent GPCR targeting small molecule; GPCR activity, DRD5 (DRD5): antagonist activity |
| Cc1ccccc1CN1C2=NCCN2C(=O)C2=C1CCN(Cc1ccccc1)C2 [TIC-10] |  | > 100 µg/mL | > 100 µg/mL | > 100 µg/mL | > 100 µg/mL | > 100 µg/mL |  | > 100 µg/mL | > 100 µg/mL | > 100 µg/mL | > 100 µg/mL | > 100 µg/mL | > 100 µg/mL | > 100 µg/mL | > 100 µg/mL | > 100 µg/mL | CXCR7 agonist | anti-cancer activity [6]: lacks anti-cancer activity; MIC ([3]; MDR Staphylococcus aureus (ATCC 700699), read-out: MIC): > 100 µg/mL; antagonism of DRD2L (DRD2L): did not inhibit |
